# From US8877696B2, “Cleaning compositions comprising pH-switchable amine surfactants” (The Proctor & Gamble Company, priority 2012, dated 2014)
# Experiments:
# Type in all cases: physicochemical
# [1] = Critical micelle formation concentration (CMC) by surface tension
# Protocol: MEASUREMENT OF THE CRITICAL MICELLE FORMATION CONCENTRATION (CMC): CMC measurements are conducted by a measurement of a surface tension measure as a function of surfactant concentration according to “Surfactant: A Practical Handbook,” K. Robert Lange ed., Hanser Publishers, Munich (1999), pp. 16-17. A 5000-ppm stock solution of the samples is prepared for the analysis on a Kruss K100 Tensiometer (Kruss USA, Charlotte, N.C.). The hardness level and pH are adjusted using corresponding stock solutions of artificial hardness and an NaOH solution. The concentration series is generated automatically with a computer-controlled Dosimat, so that only a surfactant stock solution needs to be prepared. Measurements of surface tension at the air-water interface are carried out at twelve surfactant concentrations. The samples are analyzed at pH 8 and pH 10 for hardness values of 4 gpg and 8 gpg, all measurements being taken at 25.0° C. (±0.5° C.). The CMC data are analyzed by plotting increase in surface tension with respect to dilution by using the “CMC Add-In” of the Lab Desk software from Kruss. The CMC is defined as the surfactant concentration at the breakpoint in the titration curve.
# [2] = Suds testing protocol (FOAMSCAN foam / suds / lather volume); conditions: for Foam Volume: lauric acid 2000 ppm
# Protocol: SUDS TESTING PROTOCOL: Foam volume and foam mileage are measured by […] instrument manufactured by […].-Concept, Longessaigne, France. The experiment is run at 25.0° C. (±0.5° C.). […] The cleaning solution contains 25 ppm Technical Body Soil (“TBS”; consisting of 15 wt. % coconut oil, 15 wt. % oleic acid, 15 wt. % paraffin oil, 15 wt. % olive oil, 15 wt. % cottonseed oil, 5 wt. % squalene, 5 wt. % cholesterol, 5 wt % myristic acid, 5 wt. % palmitic acid, and 5 wt. % stearic acid). The cleaning solution is mixed and aged at 60° C. for an hour and is placed into the […] sample chamber, a 1000-mL cylindrical transparent plastic cell. […] The suds volume recorded at the end of stifling is defined as the suds volume generated. The suds mileage is monitored by the time course of the suds height over 10 minutes. The final suds volume at the end of the 10 minutes is reported. […] Hardness is indicated by a calculation where both calcium and magnesium values are reported as mg/L (ppm), in which 2.5[Ca]+4.12[Mg] equals hardness in mg/L. The unit “grains per gallon” (gpg) is defined as 1 grain (64.8 mg) of calcium carbonate per U.S. gallon (3.79 L), or 17.118 ppm. Thus, 1 gpg is equivalent to 17.118 ppm of the Calcium and Magnesium solution at a 3:1 molar ratio of calcium to magnesium.
# [3] = Micellar lifetime (τ2) by stopped flow conductimetry; conditions: pH 10.0 (wash), lauric acid system
# Protocol: MEASUREMENT OF […] […] (τ2): The micellar stability of a surfactant system is measured by Stopped Flow Conductimetry. The experiment is run at 25.0° C. (±0.5° C.). […] The conductivity of the solution is monitored by a MCS-200 Impedance Spectrometer from Bio-Logic SAS. The τ2 value is defined as the time required to reach a new equilibrium, as determined by curve-fit software BKMCS (version #1) from the Bio-Logic SAS company.
# [4] = Marangoni effect (E′/E″), oscillating drop interfacial rheology; conditions: pH 10.0 (wash), lauric acid system
# Protocol: […] EFFECT (EYE'') MEASUREMENT: The Marangoni Effect quantifies the origin of foam film stability. Dynamic interfacial rheology is measured by a DSA100 (Kruss USA, Charlotte, N.C.) instrument equipped with an Oscillating Drop Module (ODM). The measurement is based on monitoring oscillating pendent drop shape with a CCD camera. The dynamic changes in the surface area and the interfacial tension (air-liquid interface) of the pendent drop from oscilating at equal periods, were recorded. A delay of dynamic interfacial tension change to dynamic surface area change is expressed as a phase angle Φ […]. From the measured phase angle, the Elastic Modulus (E') and Viscous Modulus (E'') are calculated. The Marangoni Effect EYE'' is computed from the relationship, E'/E''=cot Φ. At various surfactant levels, measurements are conducted at pH 10 and 4 gpg hardness in a base matrix of 300 ppm LAS (detergent measurements only) or 2000 ppm fatty acid (bar soap measurements only); 2300 ppm Na2SO4, and 25 ppm TBS (described above). The pH-switchable cosurfactants are added on the top of the base matrix to assess their impact on foam-film stability. The ODM operation is conducted with a period time of 2 seconds and an oscillation amplitude of 0.1 or 0.5.
smiles,measurement,setting,value
"CCCCCCCCCCCC[N+](C)(C)CCO.[Br-] [KDB, dodecyl-(2-hydroxyethyl)-dimethyl ammonium bromide]",CMC,[1]; pH 8,48 ppm
same,CMC,[1]; pH 10,43 ppm
"CCCCCCCCCCCCNCCC[N+](C)(C)C.[Br-] [QUAT, 3-(dodecylamino)-N,N,N-trimethylpropan-1-aminium bromide]",CMC,[1]; pH 8,82 ppm
same,CMC,[1]; pH 10,75 ppm
CCCCCCCCCCCC(=O)O [Lauric Acid],Foam Volume,[2]; pH 8.0 (rinse),222 mL
same,Foam Volume,[2]; pH 10.0 (wash),80 mL
same,τ2,[3],39 ms
same,E′/E″,[4],1.5
CCCCCCCCCCCC(=O)[O-].[Na+] [Sodium Laurate],Change of Lather Volume (rinse vs wash),[2]; 4 gpg,−72%
same,Change of Lather Volume (rinse vs wash),[2]; 8 gpg,−100%
same,Change of Lather Volume (rinse vs wash),[2]; DI Water,−23%
same,Lather Volume,"[2]; pH 8.0 (rinse), 4 gpg",60 mL
same,Lather Volume,"[2]; pH 8.0 (rinse), 8 gpg",0 mL
same,Lather Volume,"[2]; pH 8.0 (rinse), 12 gpg",0 mL
same,Lather Volume,"[2]; pH 8.0 (rinse), 16 gpg",0 mL
same,Lather Volume,"[2]; pH 8.0 (rinse), DI Water",170 mL
same,Lather Volume,"[2]; pH 10.0 (wash), 4 gpg",215 mL
same,Lather Volume,"[2]; pH 10.0 (wash), 8 gpg",175 mL
same,Lather Volume,"[2]; pH 10.0 (wash), 12 gpg",0 mL
same,Lather Volume,"[2]; pH 10.0 (wash), 16 gpg",0 mL
same,Lather Volume,"[2]; pH 10.0 (wash), DI Water",220 mL
